From US9034398B2, “Traditional Chinese drug comprising Danshen extracts and Sanqi extracts and use thereof” (TASLY Pharmaceutical Group Co., LTD., priority 2009, dated 2015)

Tested on: rat myocardial I/R model
Assay: Myocardial infarction area by TTC staining
Assay type: in vivo
Settings: for infarction region on TTC-stained heart slices, in contrast to I/R group / inhibition of the increase of the myocardial infarction area percentage caused by I/R: 5 mg/kg BW/h intravenous drip, 60 min after reperfusion, FIG. 6A
Experimental: The rats were anesthetized by intramuscularly injecting 20 wt % urethane (1.25 g/kg) and fixed in the supine position. Neck skin was incised and anterior cervical muscles were separated to expose the trachea. Tracheal intubation was performed. Another end of the intubation was attached to a Small Animal Ventilator (ALC-V8, Shanghai Aoteshai Biology Science and Technology Limited Company, Shanghai, China) so as to carry out pressure breathing under the following conditions: a respiratory ratio of 1:1, a respiratory frequency of 75 times/min and a tidal volume of 12 mL/kg. The rectal temperature, measured with YSI REF 401 (Yellow Spring, Ohio, USA), was maintained at 37 37.5° C. by using a thermal blanket. The chest was sterilized and opened at the intercostal space between 2nd 4th ribs near the left and right sternal border to expose the heart. The 3⁄8 curved needle threaded with 3-0 suture was used to pass through the site at 1 2 mm below the juncture of the pulmonary artery cone and the left atrial appendage. The suture was ligated. A polyethylene tubule was placed between the silk suture and myocardial tissue, the silk suture was […] to cause ischemia. Ligature was released 30 min later to establish an I/R model. Danshensu+I/R group (DLA+I/R group): a Danshensu aqueous solution (in normal saline, 1.25 mg/ml) was administrated at a dosage of 5 mg/kg BW/h by intravenous drip 20 min before the experiment and continued until the end of the entire experiment. Notoginsenoside R1+I/R group (R1+I/R group): a Notoginsenoside R1 aqueous solution (in normal saline, 1.25 mg/ml) was administrated at a dosage of 5 mg/kg BW/h by intravenous drip 20 min before the experiment and continued until the end of the entire experiment. Danshensu:R1(4:1)+I/R group (DR(4:1)+I/R group): an aqueous solution of Danshensu and Notoginsenoside R1 at a weight ratio of 4:1, dissolved in normal saline (1.25 mg/ml, namely, in the solution, the concentration of Danshensu is 1 mg/ml and the concentration of Notoginsenoside R1 is 0.25 mg/ml), was administrated at a dosage of 5 mg/kg BW/h (namely, in the total dosage, the dosage of Danshensu is 4 mg/kg BW/h and the dosage of Notoginsenoside R1 is 1 mg/kg BW/h) by intravenous drip 20 min before the experiment and continued until the end of the entire experiment. Danshensu:R1 (1:1)+I/R group (DR(1:1)+IR group): an aqueous solution of Danshensu and Notoginsenoside R1 at a weight ratio of 1:1, dissolved in normal saline (1.25 mg/ml, namely, in the solution, the concentration of Danshensu is 0.625 mg/ml and the concentration of Notoginsenoside R1 is 0.625 mg/ml), was administrated at a dosage of 5 mg/kg BW/h (namely, in the total dosage, the dosage of Danshensu is 2.5 mg/kg BW/h and the dosage of Notoginsenoside R1 is 2.5 mg/kg BW/h) by intravenous drip 20 min before the experiment and continued until the end of the entire experiment. Danshensu:R1 (0.25:1)+I/R group (DR(0.25:1)+IR group): an aqueous solution of Danshensu and Notoginsenoside R1 at a weight ratio of 0.25:1, dissolved in normal saline (1.25 mg/ml, namely, in the solution, the concentration of Danshensu is 0.25 mg/ml and the concentration of Notoginsenoside R1 is 1.0 mg/ml), was administrated at a dosage of 5 mg/kg BW/h (namely, in the total dosage, the dosage of Danshensu is 1 mg/kg BW/h and the dosage of Notoginsenoside R1 is 4 mg/kg BW/h) by intravenous drip 20 min before the experiment and continued until the end of the entire experiment. […]

Row | SMILES | infarction region on TTC-stained heart slices, in contrast to I/R group | inhibition of the increase of the myocardial infarction area percentage caused by I/R | reduction of the percentage of the myocardial infarction area after I/R (summary) (rats, summary statement of the description)
1 | O=C(O)C(O)Cc1ccc(O)c(O)c1 (centres unmarked) [Danshensu, (3,4-dihydroxyphenyl)lactic acid] | decreased obviously | significantly suppress | can reduce
2 | CC(C)=CCC[C@](C)(O[C@@H]1O[C@H](CO)[C@@H](O)[C@H](O)[C@H]1O)[C@H]1CC[C@]2(C)[C@@H]1[C@H](O)C[C@@H]1[C@@]3(C)CC[C@H](O)C(C)(C)[C@@H]3[C@@H](O[C@@H]3O[C@H](CO)[C@@H](O)[C@H](O)[C@H]3O[C@@H]3OC[C@@H](O)[C@H](O)[C@H]3O)C[C@]12C [Notoginsenoside R1] | decreased slightly | has not significantly inhibited | 
